Laboratory results: patent US20060026702A1, “Phosphoinositide 3-kinase mediated inhibition of GPCRs” (DUKE UNIVERSITY, priority 2002, published 2006)

Legend:
β2AR = β2AR sequestration in HEK-293 cells by 125I-Cyanopindolol binding; type: cell-based; details: 1 μM isoproterenol; LY294002 100 μM 15 min before
Protocol: Determination of β2AR Sequestration in HEK-293 Cells by ^125I-Cyanopindolol (CYP) Binding—β2AR sequestration was performed as previously described. Briefly, HEK-293 cells were plated at a density of 2.5×10^6 cells/dish and transfected the following day with plasmids containing either the β2AR (150-250 ng), β2AR (250 ng) and HEAT domain (4 μg), PI3Kγ (4.0 μg) or ΔPI3Kγ (4.0 μg) cDNAs. Twelve hours after transfection cells were split into six well Falcon plates at a density of 750,000 cells/well. […] To determine the amount of internalized receptor, 100 μl aliquots of whole cells were added to 150 μl of binding buffer (75 mM Tris-HCl, 10 mM MgCl2, 5 mM EDTA (pH 7.5)). Total binding was determined in the presence of 175 pM ^125I-CYP alone, the number of internalized receptors were determined by using 175 pM ^125I-CYP plus 100 nM CGP12177, and non-specific binding was determined using 175 pM ^125I-CYP plus 1 μM propranolol. Sequestration was calculated as the ratio of (specific receptor binding of ^125I-CYP in the presence of CGP12177)/(specific receptor binding of ^125I-CYP in the absence of CGP12177).

PI3K = biological target: T1, PI3K (Homo sapiens, UniProt P48736, DEL30-30/Q459R); assay: βARK1 associated PI3K activity (lipid kinase assay) in transfected NIH-3T3 cells; type: cell-based, Mouse; details: 10 μM isoproterenol, 2 min; cells co-transfected with βARK1 and HA-PI3Kγ
T1 construct: expressed in transfected cells; host or cells: NIH-3T3
T1 sequence (P48736 with tags, fused parts or gaps DEL30-30/Q459R): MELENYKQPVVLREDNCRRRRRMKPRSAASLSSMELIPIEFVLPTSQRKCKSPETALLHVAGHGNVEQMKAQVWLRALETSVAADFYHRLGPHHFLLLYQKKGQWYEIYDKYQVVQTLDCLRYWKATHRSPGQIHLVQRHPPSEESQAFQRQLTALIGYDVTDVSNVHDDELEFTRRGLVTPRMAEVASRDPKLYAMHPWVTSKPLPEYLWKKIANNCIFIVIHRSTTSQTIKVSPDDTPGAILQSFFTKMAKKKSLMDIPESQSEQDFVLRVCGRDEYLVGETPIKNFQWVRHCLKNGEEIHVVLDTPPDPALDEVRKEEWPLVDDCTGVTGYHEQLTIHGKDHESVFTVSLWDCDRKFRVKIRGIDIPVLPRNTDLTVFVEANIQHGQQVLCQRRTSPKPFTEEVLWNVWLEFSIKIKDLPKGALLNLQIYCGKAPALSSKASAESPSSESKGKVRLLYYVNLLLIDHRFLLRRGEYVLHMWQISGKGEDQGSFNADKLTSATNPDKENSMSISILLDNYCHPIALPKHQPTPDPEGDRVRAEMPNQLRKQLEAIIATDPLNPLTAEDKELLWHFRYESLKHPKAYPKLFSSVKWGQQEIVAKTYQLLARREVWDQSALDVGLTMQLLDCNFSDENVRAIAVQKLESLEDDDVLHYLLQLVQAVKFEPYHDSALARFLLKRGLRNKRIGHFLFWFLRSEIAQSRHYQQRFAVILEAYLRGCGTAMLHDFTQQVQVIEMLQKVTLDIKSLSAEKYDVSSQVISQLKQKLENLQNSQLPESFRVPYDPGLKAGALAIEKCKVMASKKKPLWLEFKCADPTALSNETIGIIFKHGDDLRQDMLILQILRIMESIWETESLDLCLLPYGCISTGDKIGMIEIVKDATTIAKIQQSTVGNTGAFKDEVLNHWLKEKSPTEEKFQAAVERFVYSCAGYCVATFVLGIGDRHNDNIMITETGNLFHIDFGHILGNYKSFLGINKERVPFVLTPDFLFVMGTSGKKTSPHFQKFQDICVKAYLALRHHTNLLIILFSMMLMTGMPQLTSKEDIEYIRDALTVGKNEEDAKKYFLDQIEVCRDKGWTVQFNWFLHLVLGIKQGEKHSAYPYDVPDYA
Protocol: Cell Culture—Mouse NIH-3T3 and HEK293 cells were maintained in either Iscoves modified Dulbecco's medium or minimal essential medium (MEM) supplemented with 10% fetal bovine serum and 1:100 penicillin-streptomycin (10,000 U/ml) at 37° C. Cells were seeded at a density of ˜1-3×10^5 cells/35 mm^2 dish and at 70-80% confluence were transiently transfected using the transfection reagent FUGENE6 (ROCHE) or calcium phosphate precipitation. Cells were harvested 24 hours after transfection, re-plated in triplicate, allowed to grow overnight and serum starved for 2-4 hours before agonist stimulation.
Cytosolic and Membrane Fractionation—Cell monolayers were scraped in 1 ml of buffer containing 25 mM Tris-HCl (pH 7.5), 5 mM EDTA, 5 mM EGTA, 1 mM phenylmethylsulfonyl fluoride, 2 μg/ml each of leupeptin and aprotinin and disrupted further by using Dounce homogenizer. Intact cells and nuclei were removed by-centrifugation at 1,000×g for 5 min. The collected supernatant was further subject to a centrifugation at 38,000×g for 25 min. The pellet was resuspended in lysis buffer (1% Nonidet P-40, 10% glycerol, 137 mM NaCl, 20 mM Tris-Cl (ph 7.4), 1 mM phenylmethylsulfonyl fluoride, 20 mM NaF, 1 mM sodium pyrophosphate, 1 mM sodium orthovanadate and 2 μg/ml each of aprotinin and leupeptin) and used as membrane fraction and the supernatant was diluted in lysis buffer and used as the cytosolic fraction.
Lipid Kinase Assays—Cells were lysed in lysis buffer and 2 mg cytosolic extract was used for immunoprecipitation with either the C5/1 monoclonal antibody directed against βARK1, the anti-FLAG M2 monoclonal antibody (Sigma) or antibodies to p110γ, or p110β (Santa Cruz Biotechnology) and protein G-agarose. Sedimented beads were then washed once with 1 ml of lysis buffer, thrice with 1 ml of phosphate-buffered saline (1× phosphate-buffered saline, 1% NP-40 and 100 μM sodium orthovanadate), thrice with 1 ml of Tris/LiCl (100 mM Tris-HCl (pH 7.4), 5 mM LiCl and 100 μM sodium orthovanadate) and twice with TNE (10 mM Tris Cl (pH 7.4), 150 mM NaCl, 5 mM EDTA and 100 μM sodium orthovanadate). Samples were then resuspended in 50 ml of TNE and 10 μl of 100 mM MgCl2 was added to each sample. The substrate, phosphatidylinositol (PI, Avanti), was prepared by drying 50 μl of the 10 mg/ml stock (PI in chloroform) in an eppendorf tube with a stream of air and adding 250 μl of TE (10 mM Tris Cl (pH 7.4) and 1 mM EDTA). The PI was then suspended by sonication in an ice bath for 3 minutes. 10 p, of the PI solution and 11 μl of ATP solution (440 μM cold ATP and 1 μCi/μl of [γ-32P]ATP) were added to each sample. […] Autoradiography of dried plates was used to detect signals, and PIP was quantified by phosphorimaging. […] Values are expressed as fold increase/decrease relative to wild-type/control.

β2AR complex = assay: Recruitment of AP-2 adaptin and clathrin to the agonist-stimulated β2AR complex (immunoprecipitation, immunoblot); type: cell-based; details: saponin-permeabilized cells, isoproterenol 5 min; compared to similar concentration of Ptdlns (4,5) P2
Protocol: Immunoblotting and Detection—Immunoblotting and detection of PI3K, βARK1, HA-PI3Kγ, HA-ΔPI3Kγ, Myc-PI3Kα, FLAG-HEAT, PI3KΔHEAT-HA, FLAG-β2AR, HA-β2AR, β-adaptin and clathrin was carried out as previously described. Immunoprecipitating antibodies were added to 500 μg of cell lysate in lysis buffer followed by the addition of 35 μl of 1:1 Protein A- or G-agarose. Samples were rocked overnight at 4° C. then centrifuged at 12,000×g for 5 min. Immunoprecipitates were washed twice with lysis buffer, twice with 1×PBS and resuspended in 1×SDS-gel loading buffer. Proteins were resolved by SDS-polyacrylamide gel electrophoresis and blotted on to PVDF membrane (Bio-Rad). Blots were incubated with antibodies recognizing PI3K, Myc (Santa-Cruz), β-adaptin, clathrin heavy chain (BD Transduction Laboratories), HA (Roche Molecular Biochemicals) and FLAG (Sigma) at 1:2000 dilution and the βARK1 monoclonal antibody at 1:10,000 dilution. Blots were subsequently incubated with appropriate secondary antibody (1:2000 dilution) conjugated to horseradish peroxidase (Amersham Pharmacia Biotech) and detection was carried out using enhanced chemiluminescence. […]
The present inventors determined that βARK1-mediated localization of PI3K within the activated receptor complex is responsible for the generation of D-3 phosphatidylinositols necessary for the efficient recruitment of adaptin to the P2AR complex. […]

## O=c1cc(N2CCOCC2)oc2c(-c3ccccc3)cccc12 [LY294002, reference compound]
β2AR
  reduction in sequestration: 50%

## CC(C)NCC(O)c1ccc(O)c(O)c1 (stereo not shown) [isoproterenol, reference compound]
PI3K
  βARK1 associated PI3K activity in the cytosolic fraction after agonist: little change
  βARK1 associated PI3K activity in the membrane fraction after agonist: significant increase

## phosphatidylinositol 3,4,5-triphosphate [Ptdlns (3,4,5) P3, reference compound]
β2AR complex
  efficiency of recruitment of adaptin to the receptor: significantly enhanced
